Read-outs that look alike come from different tables or passages of the source.
Columns and labels:
[1] = In vivo pharmacokinetics in male CD1 mice; design: species or system mouse; conditions: Table S6; for CLpu: plasma clearance corrected for the fraction unbound; for clearance: plasma clearance, read-out: CLp (L/h/kg) IV (converted); for half-life: read-out: T1/2(h) IV (converted); for Vd: read-out: VSS (L/kg) IV; for bioavailability: oral bioavailability
Procedure: The in vivo pharmacokinetic profiles of the compounds were determined using male CD1 mice weighing […] ([Davies and Morris, 1993]; [Liu and Jia, 2007]). The compounds were administered in a single dose orally (0.5 mg/kg) and intravenously (0.5 mg/kg). Stock solutions of the compounds in DMSO were diluted in Tween 80, PEG-400, and D5W (5% dextrose in water) at a ratio of 2:5:20:73 (v/v). The injection volume was 10 ml/kg. The remaining plasma concentration was monitored over time by LC-MS/MS by collecting blood samples (40 μl) at 10, 25, and 50 min and 1, 3, 6, 9, 12, and 24 h after administration of the compound.
For the biotransformation experiments and analysis of metabolites in microsomes, an Ultra-High-Pressure Liquid Chromatography instrument (UHPLC, Thermo Accela, Waltham, MA) ([Spaggiari et al., 2014]) connected to an automatic sample injector and a 1250 series pump was used. The UHPLC system was connected to a Thermo Fisher (Waltham, MA) LTQ Orbitrap mass spectrometer. For all other analyses, an AB Sciex Triple Quad 5500 coupled to a UHPLC equipped with a UV 1290 diode detector (Agilent Technologies, Santa Clara, CA) and a CTC PAL self-collecting system (LEAP Technologies, Carrboro, NC) was used. Q1 MS positive ion mode (300–500 Da) was used to detect the ions of the parent compounds. The UV detector was operated in spectral mode (250–280 nm). A Hypersil Gold C18 (2.1 mm × 100 mm, 1.9 µm, Thermo Fisher) HPLC column was used. The mobile phases were solvent A (0.1% formic acid in water) and solvent B (0.1% formic acid in ACN). The flow was adjusted to 0.55 ml/min, and the injection volume was adjusted to […]. The gradient started with 1% solvent B for 0.4 min, reached 40% (solvent B) in 2.3 min and 95% (solvent B) in 0.67 min, was maintained for 0.5 min, and returned to the initial condition of 1%. This condition was maintained for 1 min before injection of the next sample. The peak area ratio (peak area of the test compounds/peak area of the control compounds) was converted to the percentage of remaining compound, with the 0 min time point ratio set to 100%. T½ and CLint were calculated from the percentage of remaining compound versus the incubation time. From the resulting function, the slope (k) was determined. The equations T1/2 (min) = ln(2)/k and CLint in vitro (μL/min/mg) = k*1000/0.25 were used to determine T½ and CLint.

[2] = In vitro metabolic stability in mouse liver microsomes; type: in vitro ADME; conditions: mouse, liver microsomes
In short: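 Compounds incubated at 37°C with mouse or human liver microsomes (0.25 mg/ml) in potassium phosphate buffer with NADPH; samples quenched in ACN/MeOH at 0, 5, 10, 15, 20 and 30 min. Parent remaining by LC-MS/MS relative to 0 min; T½ = ln(2)/k, CLint = k*1000/0.25 (μL/min/mg).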

[3] = Cytotoxicity MTS assay in HFF-1 fibroblasts; type: cell-based; conditions: human HFF-1 fibroblasts
rhodesain = rhodesain (Trypanosoma brucei rhodesiense, UniProt Q95PM0); assay: Rhodesain fluorescence-based inhibition assay (Z-FR-AMC); type: biochemical; conditions: Table S3; compound 100 µM
Chain of rhodesain (Q95PM0 entry or part of it): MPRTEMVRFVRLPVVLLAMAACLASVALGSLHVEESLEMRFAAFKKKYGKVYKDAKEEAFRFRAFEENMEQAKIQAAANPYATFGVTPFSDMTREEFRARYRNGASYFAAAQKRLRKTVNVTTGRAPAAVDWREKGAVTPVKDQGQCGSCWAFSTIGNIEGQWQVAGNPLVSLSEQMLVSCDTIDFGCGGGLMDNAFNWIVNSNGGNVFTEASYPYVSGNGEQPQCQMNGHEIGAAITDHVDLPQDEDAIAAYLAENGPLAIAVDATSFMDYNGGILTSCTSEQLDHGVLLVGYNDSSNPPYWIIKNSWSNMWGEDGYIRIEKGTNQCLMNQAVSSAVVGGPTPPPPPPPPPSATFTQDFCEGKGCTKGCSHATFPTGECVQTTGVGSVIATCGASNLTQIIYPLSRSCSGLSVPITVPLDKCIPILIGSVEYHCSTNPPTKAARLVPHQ
Procedure: Rhodesain activity was measured using a fluorescence-based assay as previously described ([Fonseca et al., 2015]). The cleavage rates of the fluorogenic substrate Z-Phe-Arg-aminomethyl coumarin (Z-FR-AMC) were monitored at wavelengths of 340 nm for excitation and 440 nm for emission. All assays were performed in triplicate in a 0.1 M sodium acetate buffer, pH 5.5, with 1 mM beta-mercaptoethanol and 0.01% Triton X-100. The final concentration of rhodesain was 3 nM, and the substrate concentration was 2.5 μM. The cleavage of the substrate was followed by continuous reading for 5 min, and enzyme activity in the presence of 100 μM of each potential inhibitor was calculated based on initial velocity rates compared to DMSO controls. All compounds were tested in triplicate in three independent experiments.

[4] = male, CD1, mouse, 0.5 mg/kg, IV, mice
[5] = male, CD1, mouse, plasma, 0.5 mg/kg, IV, mice
[6] = male, CD1, mouse, plasma, 0.5 mg/kg, IV, mice, read-out: AUC (ng*h/mL) IV
[7] = male, CD1, mouse, plasma, 0.5 mg/kg, PO, mice
[8] = male, CD1, mouse, plasma, 0.5 mg/kg, mice
[9] = Table S5, CLint/fu, read-out: CLint_u (L/h/kg) Mouse (converted)
[10] = Table S5, read-out: CLint (L/h/kg) Mouse (converted)

SMILES	CLpu [1]	clearance [1, 4]	C0 [1, 5]	AUC [1, 6]	half-life [1, 5]	Vd [1, 5]	Cmax [1, 7]	Tmax [1, 7]	AUC ([1]; male, CD1, mouse, plasma, 0.5 mg/kg, PO, mice, read-out: AUC (ng*h/mL) PO)	bioavailability [1, 8]	CLint scaled at 5 µM [2, 9]	CLint scaled at 5 µM [2, 10]	IC50 at 72 h [3]	inhibition at 100 µM (rhodesain)
CC(=O)Nc1cccc(OCC(=O)NCCc2nc3ccccc3[nH]2)c1 [Compound 3]	242.5 mL/min/kg	2.31 L/h/kg	12000 ng/mL	916 ng·h/mL	0.35 h	0.45 L/kg	9 ng/mL	26.4 min	9.91 ng·h/mL	1%	10.6 L/h/kg	10.6 L/h/kg	> 100 µM	41%
O=C(COc1ccc2cc(O)ccc2c1)NCCc1nc2ccccc2[nH]1 [Compound 10]	314 mL/min/kg	6.52 L/h/kg	660 ng/mL	156 ng·h/mL	0.14 h	1.21 L/kg				0%	32.3 L/h/kg	26.4 L/h/kg	> 100 µM	60%

Source: publication PMC8767159, “Multiparameter Optimization of Trypanocidal Cruzain Inhibitors With In Vivo Activity and Favorable Pharmacokinetics” (Frontiers in Pharmacology, 2022)
